From patent publication US4216216A, “Aromatic piperazinyl substituted dihydrouracils” (Hoechst Aktiengesellschaft, priority 1977, dated 1980)
≈ marks a conversion by molar mass, not a printed value. Counter-ions that a name gives are not always drawn.

Columns and labels:
[1] = pH value of aqueous solution; type: physicochemical; details: for pH value of a 0.1% aqueous solution: 0.1% solution
[2] = system: serotonin spasm (bronchospasm); assay: Test a: inhibition of serotonin-induced bronchospasm (Konzett and Rossler); type: in vivo; details: Cavia porcellus, guinea pigs
Protocol: (§1) For determination of the serotonin-antagonistic activity the following pharmacological tests were used: Test a: (Test according to Konzett and Rossler (Arch. exp. Path. Pharmak. 195 (1940) 71). Domestic albino guinea pigs were anaesthetised with 1.25 g/kg of urethane intraperitoneally (i.p.). Bronchial resistance was recorded in the open thorax by a recorder ("bronchotransducer") manufactured by the firm Ugo Basile (Milan); respiratory frequency was kept constant by artificial respiration at a frequency of 58 strokes/minute, the inflation pressure was 9 cm H2 O column. To induce bronchospasms, 5 to […] of serotonin (as serotonin-creatinine sulphate) were injected into one of the jugular veins every 15 minutes in a volume of 0.1 ml/kg body weight. The test substances were administered in a volume of 1 ml/kg either intravenously within 30 seconds, 2 minutes before generation of the serotonin spasm or intraduodenally or orally by oesphageal tube 15 minutes before the spasm. […] The results are given in Table I. Test b: (Serotonin antagonism in the isolated uterus of rats according to Robert A. Turner: Screening Methods in Pharmacology, Academic Press 1965 (New York and London)) Female Sprague-Dawley rats with a weight of 180 to 240 g were given intraperitoneally 2 mg of Oestromon (Merck, Darmstadt) 24 hours before extraction of the uterus in order to induce oestrus. The organ bath was kept at 22° C. and contained a Tyrode solution having a specific composition. The test substance was added to the bath in aqueous solution with a total volume of 0.1 ml. The serotonin concentration administered was 10^-8 g/ml bath. The ED50 value corresponded to the dose by which a serotonin spasm is inhibited by 50%. Test c: (5-Hydroxy-L-tryptophan antagonism in mice). A single administration of 5-hydroxy-L-tryptophan causes in mice a strong increase in defecation due to the increased biosynthesis of serotonin from exogenically supplied amino acids. This defecation effect can be reduced by serotonin antagonists. The test substances were administered orally 45 minutes before administration of the tryptophan. The tryptophan dose was 40 mg/kg i.p.

[3] = system: serotonin spasm in the isolated uterus of rats; assay: Test b: serotonin antagonism in the isolated uterus of rats; type: cell-based, rats (Sprague-Dawley); details: isolated rat uterus; serotonin 10^-8 g/ml bath; 22° C.; read-out: ED50 (the source's name)
Protocol: as §1

5-Hydroxy-L-tryptophan = assay: Test c: 5-Hydroxy-L-tryptophan antagonism in mice (defecation); type: in vivo; details: 5-hydroxy-L-tryptophan 40 mg/kg i.p.
Protocol: as §1
Evaluation was carried out 1 hour after administration of the preparation by measurement of the quantity of faeces produced. A reduction in this quantity by not more than 25% of the control is indicated, according to the result, by 0 or (+), from 25 to 50% by +, from 50 to 75% by ++ and over 75% +++ (see Table I).

thrombocyte aggregation [4] = assay: Thrombocyte aggregation inhibiting activity (ADP-induced, platelet-rich plasma); type: cell-based, beagle dogs
Protocol: Thrombocyte aggregation was induced experimentally in platelet-rich plasm (PRP) of beagle dogs by in vitro administration of adenosine diphosphate (ADP) in a final concentration of 2.5×10^-6 and was measured by means of a universal aggregometer (manufactured by B. Braun/Melsungen). An Eppendorf Photometer recorded the change in the optical density of the plasma.
The following parameters were determined:
1. The angle, α, between the tangent at the starting point of the curve and the horizontal axis,
2. The time, Tr, from the start of rotation (aggregation) until complete disaggregation,
3. The maximum amplitude (Ma) of the aggregation curve as the difference between starting transmission and maximum transmission.

Acute toxicity, mice = details: mouse, in vivo, mortality within 7 days
Description: (§2) Table III sets out for some compounds, the toxicity determined in mice and rats after intraperitoneal and intravenous administration over the mortality occurring within 7 days as LD50 or LD50 range.

Acute toxicity, rats = details: rat, in vivo, iv, mortality within 7 days
Description: as §2

serotonin = details: background statement; cited from earlier work
thrombocyte aggregation [5] = details: background statement; cited from earlier work
mice = details: i.v., Speigt and Avery, Drugs 3, 159-203 (1972), 10080 min; cited from earlier work
rats = details: i.v., Speigt and Avery, Drugs 3, 159-203 (1972), 10080 min; cited from earlier work
[6] = 0.25 h, i.d. (intraduodenal), 15 minutes after administration
[7] = iv, 2 min, i.v., 2 minutes after injection
[8] = Canis lupus familiaris, final concentration 10^-4 g/ml, read-out: Change of Ma in %
[9] = po, 0.25 h, p.o., 15 minutes after administration
[10] = final concentration 3 × 10^-5 g/ml

| Compound | ED50 [2, 6] [mg/kg] | ED50 [2, 7] [mg/kg] | IC50 [3] [ng/mL] | Strength of activity (reduction in quantity of faeces) (5-Hydroxy-L-tryptophan; 20 mg/kg p.o.) | inhibition at 100 µg/mL (thrombocyte aggregation [4]; [8]) [%] | Ma, maximum amplitude of the aggregation curve (thrombocyte aggregation [4]; final concentration 10^-4 g/ml) | Tr, time from start of rotation (aggregation) until complete disaggregation (thrombocyte aggregation [4]; final concentration 10^-4 g/ml) [min] | angle α between the tangent at the starting point of the curve and the horizontal axis (thrombocyte aggregation [4]; final concentration 10^-4 g/ml) | LD50 at 168 h (Acute toxicity, mice; iv) [mg/kg] | further results |
| --- | --- | --- | --- | --- | --- | --- | --- | --- | --- | --- |
| CC1(C)CC(=O)N(CCN2CCN(c3ccccc3)CC2)C(=S)N1 [dihydrochloride hydrate] |  |  |  |  |  |  |  |  |  | pH value of a 10% aqueous solution ([1]; 10% aqueous solution): around 1.8 |
| CC1(C)CC(=O)N(CCN2CCN(c3ccccc3)CC2)C(=S)N1 [compound 18] | ~0.03 | 0.001 to 0.003 | 0.1 to 1 (≈ 0.289 to 2.89 nM) | ++ (from 50 to 75%) | 19 | 328 | 3.0 | 85.8 | 100 to 150 | Strength of activity (reduction in quantity of faeces) (5-Hydroxy-L-tryptophan; 10 mg/kg p.o.): ++ (from 50 to 75%); LD50 at 168 h (Acute toxicity, rats): 66 mg/kg; pH value of a 0.1% aqueous solution [1]: about 4.3 |
| CN(C)CCCOC1(Cc2ccccc2)CCCCCC1 [Bencyclane] |  |  |  |  |  |  |  |  |  | serotonin antagonism (serotonin): weak serotonin antagonism; inhibition of thrombocyte aggregation (thrombocyte aggregation [5]): inhibiting thrombocyte aggregation |
| CC1(C)CC(=O)N(CCCN2CCN(c3ccccc3)CC2)C(=S)N1 [compound 16] | 0.3 | 0.01 to 0.03 | 1 to 10 (≈ 2.77 to 27.7 nM) | + (from 25 to 50%) | 42 | 315 | 1.8 | 86.3 | 40 to 63 | ED50 [2, 9]: ~0.3 mg/kg; Strength of activity (reduction in quantity of faeces) (5-Hydroxy-L-tryptophan; 10 mg/kg p.o.): + (from 25 to 50%); LD50 at 168 h (Acute toxicity, mice; ip): 200 to 400 mg/kg |
| CC[C@@H](CO)NC(=O)[C@@H]1C=C2c3cccc4c3c(cn4C)C[C@H]2N(C)C1 [methysergide] |  |  |  |  |  |  |  |  |  | serotonin antagonism (serotonin): serotonin-antagonistic activities |
| CN1CCC(=C2c3ccccc3CCc3sccc32)CC1 [Pizotyline-HCl, reference compound] | 0.01 to 0.1 | 0.01 to 0.05 | 1 to 10 | + (from 25 to 50%) |  |  |  |  |  | ED50 [2, 9]: 0.5 to 1 mg/kg; LD50 (mice): 43 ± 1.8 mg/kg; LD50 (rats): 17 ± 1.1 mg/kg |
| CN1CCC(=C2c3ccccc3CCc3sccc32)CC1 [Pizotyline] |  |  |  |  |  |  |  |  |  | serotonin antagonism (serotonin): serotonin-antagonistic activities |
| CN1C(=O)N(CCCN2CCN(c3ccccc3)CC2)C(=O)CC1(C)C [compound 26] |  |  |  |  |  |  |  |  |  | pH value of a 0.1% aqueous solution [1]: around 3.0 |
| CC1(C)CC(=O)N(CCCN2CCN(c3ccc(F)cc3)CC2)C(=O)N1 [compound 11] |  | 0.01 to 0.03 |  |  |  |  |  |  |  | LD50 at 168 h (Acute toxicity, mice; ip): 100 to 300 mg/kg |
| CN(C)CCCOC1(Cc2ccccc2)CCCCCC1 [Fludilate, reference compound] |  |  |  |  |  | 324 | 2.6 | 85.2 |  | Change of Ma in % (thrombocyte aggregation [4]; final concentration 10^-4 g/ml): -34% |
| CC1(C)CC(=O)N(CCCN2CCN(c3ccccc3)CC2)C(=O)N1 [compound 9] | 0.01 to 0.03 | 0.003 to 0.01 | 1 to 10 (≈ 2.9 to 29 nM) |  | 20 | 483 | 4.0 | 87.0 | 83 | ED50 [2, 9]: 0.1 to 0.3 mg/kg; inhibition at 30 µg/mL (thrombocyte aggregation [4]; Canis lupus familiaris, final concentration 3 × 10^-5 g/ml, read-out: Change of Ma in %): 13%; inhibition at 10 µg/mL (thrombocyte aggregation [4]; Canis lupus familiaris, final concentration 10^-5 g/ml, read-out: Change of Ma in %): 11%; Ma, maximum amplitude of the aggregation curve (thrombocyte aggregation [4]; [10]): 523; Tr, time from start of rotation (aggregation) until complete disaggregation (thrombocyte aggregation [4]; [10]): 4.3 min; angle α between the tangent at the starting point of the curve and the horizontal axis (thrombocyte aggregation [4]; [10]): 86.6; Ma, maximum amplitude of the aggregation curve (thrombocyte aggregation [4]; final concentration 10^-5 g/ml): 535; Tr, time from start of rotation (aggregation) until complete disaggregation (thrombocyte aggregation [4]; final concentration 10^-5 g/ml): 4.6 min; angle α between the tangent at the starting point of the curve and the horizontal axis (thrombocyte aggregation [4]; final concentration 10^-5 g/ml): 86.5; LD50 at 168 h (Acute toxicity, mice; ip, for the base): 100 to 300 mg/kg; LD50 at 168 h (Acute toxicity, rats; for the base): 60 mg/kg |
| CC1NC(=O)N(CCCN2CCN(c3ccccc3)CC2)C(=O)C1C (stereo not shown) [compound 17] | 0.01 to 0.03 | 0.001 to 0.003 | 1 to 10 (≈ 2.9 to 29 nM) | ++ (from 50 to 75%) | 18 | 344 | 2.3 | 85.9 | 54 | Strength of activity (reduction in quantity of faeces) (5-Hydroxy-L-tryptophan; 10 mg/kg p.o.): + (from 25 to 50%); LD50 at 168 h (Acute toxicity, rats): 25 to 40 mg/kg |
